Test results reported in ChEMBL document CHEMBL1201862, “PubChem BioAssay data set” (2004).
Calls of active or inactive are those of the source.

Legend:
[1] = reduction of Shn3 3'UTR-driven luciferase in osteoblasts – cell-based, Clone20 osteoblasts, firefly luciferase, cherry-picked, dose response (AID 624132); type: functional;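 note: firefly luciferase luminescence from reporter carrying the Shn3 3'UTR in osteoblasts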
[2] = target: Sphingosine 1-phosphate receptor 4 (Homo sapiens, UniProt O95977); assay: Fluorescence dose response cell-based high throughput screening assay for antagonists of the Sphingosine 1-Phosphate Receptor 4 (S1P4). [Related pubchem assays: 1524 (Confirmation in triplicates.), 1510 (Primary screen.)]; type: functional
Sequence of Sphingosine 1-phosphate receptor 4 (O95977 whole entry): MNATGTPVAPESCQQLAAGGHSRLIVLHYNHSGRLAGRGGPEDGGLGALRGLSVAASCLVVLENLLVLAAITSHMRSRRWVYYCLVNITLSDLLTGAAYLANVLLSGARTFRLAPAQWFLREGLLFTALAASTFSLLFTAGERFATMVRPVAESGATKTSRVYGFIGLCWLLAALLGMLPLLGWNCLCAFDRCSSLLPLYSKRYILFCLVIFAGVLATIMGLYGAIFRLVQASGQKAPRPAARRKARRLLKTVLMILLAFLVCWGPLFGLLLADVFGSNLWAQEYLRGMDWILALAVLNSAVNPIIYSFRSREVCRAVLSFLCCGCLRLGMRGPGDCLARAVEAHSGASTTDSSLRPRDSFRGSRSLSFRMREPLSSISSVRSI

[3] = DRD fibroblast viability loss – cell-based, non-viral oncogenic, luminescence, dose response (AID 1934); type: functional; conditions: Homo sapiens
INS1 = assay: INS-1E survival protection against cytokine death – cell-based, luminescence, retest, dose response (AID 449756); type: functional; conditions: Rattus norvegicus;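 note: cell death triggered by IL-1 beta plus TNF-alpha plus IFN-gamma mixture; protective hits raise ATP signal compared with cytokine alone wells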
BJ [4] = assay: BJ-TERT-LT-ST fibroblast viability loss – cell-based, RAS-independent, luminescence, dose response (AID 1935); type: functional; conditions: Homo sapiens;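 note: BJ fibroblasts immortalized with TERT plus LT and ST oncogenes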
[5] = target: T1, Microphthalmia-associated transcription factor (Homo sapiens, UniProt O75030); assay: reducers of TRPM1 reporter luminescence, concentration series – cell-based, SK-MEL-5, cherry-picked, set 3, MITF inhibitor project, dose response (AID 493073); type: functional;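 note: SK-MEL-5 melanoma cells with luciferase driven by the MITF target TRPM1 promoter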
T1 sequence (O75030 whole entry): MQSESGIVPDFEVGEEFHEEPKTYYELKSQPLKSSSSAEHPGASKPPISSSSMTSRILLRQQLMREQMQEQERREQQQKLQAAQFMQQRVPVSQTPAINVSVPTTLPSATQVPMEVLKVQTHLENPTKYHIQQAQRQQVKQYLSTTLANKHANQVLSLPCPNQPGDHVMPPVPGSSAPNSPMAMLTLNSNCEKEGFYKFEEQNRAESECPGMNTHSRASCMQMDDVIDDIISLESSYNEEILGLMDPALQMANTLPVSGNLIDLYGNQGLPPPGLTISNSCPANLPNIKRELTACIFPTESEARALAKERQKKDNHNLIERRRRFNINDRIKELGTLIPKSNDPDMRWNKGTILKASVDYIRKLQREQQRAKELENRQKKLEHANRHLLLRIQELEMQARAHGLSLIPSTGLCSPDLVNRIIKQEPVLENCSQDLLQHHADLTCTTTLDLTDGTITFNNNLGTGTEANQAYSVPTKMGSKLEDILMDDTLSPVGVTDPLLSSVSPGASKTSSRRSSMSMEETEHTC

[6] = non-specific 3'UTR reporter inhibition in Clone20-Shn3RL – cell-based, Renilla luciferase, cherry-picked, counter-screen for Shn3 inhibitor project, dose response (AID 624133); type: functional
[7] = luciferase reporter signal suppression in cells – H4 neuroglioma cells, luminescence, dose response (AID 1990); type: functional, cell-based
[8] = target: T2, High affinity choline transporter 1 (Homo sapiens, UniProt Q9GZV3); assay: human choline transporter blockers, potency – cell-based, 10-point CRC, membrane potential dye, dose response (AID 588401); type: functional;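 note: membrane potential dye fluorescence of choline-evoked depolarization via CHT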
T2 sequence (Q9GZV3 whole entry): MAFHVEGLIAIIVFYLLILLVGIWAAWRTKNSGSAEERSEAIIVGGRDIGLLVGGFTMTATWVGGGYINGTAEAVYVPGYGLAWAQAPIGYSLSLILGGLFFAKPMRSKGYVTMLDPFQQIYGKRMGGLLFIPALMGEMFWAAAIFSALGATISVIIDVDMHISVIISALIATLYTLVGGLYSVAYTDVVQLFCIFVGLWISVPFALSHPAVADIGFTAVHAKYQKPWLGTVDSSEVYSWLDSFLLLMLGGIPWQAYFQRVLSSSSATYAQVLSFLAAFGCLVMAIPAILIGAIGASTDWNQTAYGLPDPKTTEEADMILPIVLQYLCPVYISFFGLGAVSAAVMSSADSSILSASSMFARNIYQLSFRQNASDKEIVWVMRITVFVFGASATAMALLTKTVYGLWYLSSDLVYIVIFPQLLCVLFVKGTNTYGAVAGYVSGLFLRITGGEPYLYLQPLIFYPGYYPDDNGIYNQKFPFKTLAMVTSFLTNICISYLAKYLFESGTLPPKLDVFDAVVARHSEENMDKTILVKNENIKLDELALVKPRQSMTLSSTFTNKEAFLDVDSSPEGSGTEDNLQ

[9] = Trypanosoma cruzi growth suppression in host cells – NIH3T3 host cells, beta-gal luminescence, confirmation (AID 2044); type: functional, cell-based;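 note: intracellular parasites grown in NIH/3T3 mouse fibroblasts as host cells; luminescent beta-galactosidase reporter signal from transgenic T. cruzi replicating inside host cells; inhibitors lower the luminescence signal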
[10] = NIH3T3 cell viability loss – ATP luminescence, mouse fibroblasts, counter-screen, dose response (AID 2010); type: functional, cell-based;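 note: cells exposed to compound for about 90 hours before reading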
[11] = target: G-protein coupled receptor 55 (Homo sapiens, UniProt Q9Y2T6); assay: selective activators of receptor GPR55 – imaging, U2OS cells, beta-arrestin-GFP redistribution, primary screen (AID 1961); type: functional
Sequence of G-protein coupled receptor 55 (Q9Y2T6 whole entry): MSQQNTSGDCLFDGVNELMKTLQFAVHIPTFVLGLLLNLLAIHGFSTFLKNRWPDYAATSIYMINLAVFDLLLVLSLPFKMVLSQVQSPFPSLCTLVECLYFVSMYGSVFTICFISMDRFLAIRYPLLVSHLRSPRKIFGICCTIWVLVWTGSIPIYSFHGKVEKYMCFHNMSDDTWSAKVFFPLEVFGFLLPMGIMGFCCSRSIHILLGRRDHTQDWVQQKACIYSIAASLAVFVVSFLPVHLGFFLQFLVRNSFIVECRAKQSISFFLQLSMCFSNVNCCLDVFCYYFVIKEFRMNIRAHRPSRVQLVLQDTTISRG

[12] = target: Sphingosine 1-phosphate receptor 1 (Homo sapiens, UniProt P21453); type: functional;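 note: Tango beta-arrestin reporter U2OS cells stimulated with S1P near its EC80; inhibitor potency meaning antagonism of receptor activation by the natural agonist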
Sequence of Sphingosine 1-phosphate receptor 1 (P21453 whole entry): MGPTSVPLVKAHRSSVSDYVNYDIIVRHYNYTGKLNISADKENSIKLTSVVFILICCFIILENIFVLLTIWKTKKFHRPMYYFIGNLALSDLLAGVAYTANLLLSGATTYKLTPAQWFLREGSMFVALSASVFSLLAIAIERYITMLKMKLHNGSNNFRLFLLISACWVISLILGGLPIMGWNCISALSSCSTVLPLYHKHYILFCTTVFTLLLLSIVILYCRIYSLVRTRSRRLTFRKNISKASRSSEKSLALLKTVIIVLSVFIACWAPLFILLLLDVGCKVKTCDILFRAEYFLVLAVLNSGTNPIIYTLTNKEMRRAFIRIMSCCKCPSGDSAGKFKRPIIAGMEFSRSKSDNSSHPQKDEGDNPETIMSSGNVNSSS

BJ [13] = assay: BJ-TERT fibroblast viability loss – cell-based, RAS-independent, luminescence, dose response (AID 1933); type: functional; conditions: Homo sapiens
[14] = target: G-protein coupled receptor 35 (Homo sapiens, UniProt Q9HC97); assay: inhibition of zaprinast-stimulated GPR35 beta-arrestin translocation – imaging, U2OS, beta-arrestin-GFP, zaprinast agonist, primary screen (AID 2058); type: functional;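 note: antagonist potency meaning inhibition of agonist-induced arrestin redistribution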
Sequence of G-protein coupled receptor 35 (Q9HC97 whole entry): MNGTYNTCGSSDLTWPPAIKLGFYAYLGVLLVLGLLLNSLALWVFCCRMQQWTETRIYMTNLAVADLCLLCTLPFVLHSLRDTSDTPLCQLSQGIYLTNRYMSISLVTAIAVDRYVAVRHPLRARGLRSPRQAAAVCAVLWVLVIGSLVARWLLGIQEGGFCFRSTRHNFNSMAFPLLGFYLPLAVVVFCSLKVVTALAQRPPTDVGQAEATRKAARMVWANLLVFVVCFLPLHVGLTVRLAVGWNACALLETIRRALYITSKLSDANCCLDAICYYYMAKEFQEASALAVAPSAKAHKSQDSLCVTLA

[15] = Luminescence Cell-Based Dose Response HTS to Identify Inhibitors of 5'UTR Stem-Loop Driven Prion Protein mRNA Translation in H4 Neuroglioblastoma Cells. [Related pubchem assays: 1827 (Project Summary), 1813 (Primary HTS)]; type: functional
BJ [16] = assay: cells; type: functional, cell-based; conditions: Homo sapiens
[17] = target: T2, High affinity choline transporter 1; assay: human choline transporter blockers, potency – cell-based, 5-point CRC, membrane potential dye, dose response (AID 504840); type: functional
[18] = alpha-synuclein stem-loop luciferase translation blockers – H4 neuroglioma cells, luminescence, confirmation (AID 1988); type: functional, cell-based
[19] = loss of viability in HepG2 cells – cell-based, CellTiter-Glo, cherry-picked, cytotoxicity control for Shn3 inhibitor project, dose response (AID 624134); type: functional
A-375 = assay: proliferation inhibition in MITF-low A375 cells – cell-based, cherry-pick samples, set 2, counter-screen for MITF modulator project, dose response (AID 540335); type: functional; conditions: Homo sapiens
[20] = target: Melanin-concentrating hormone receptor 1 (Homo sapiens, UniProt Q99705); assay: Late-stage fluorescence-based counterscreen for antagonists of the G-protein coupled receptor 7 (GPR7): cell-based dose response assay to identify antagonists of the melanin-concentrating hormone receptor 1 (MCHR1) Set 6.; type: functional
Sequence of Melanin-concentrating hormone receptor 1 (Q99705 whole entry): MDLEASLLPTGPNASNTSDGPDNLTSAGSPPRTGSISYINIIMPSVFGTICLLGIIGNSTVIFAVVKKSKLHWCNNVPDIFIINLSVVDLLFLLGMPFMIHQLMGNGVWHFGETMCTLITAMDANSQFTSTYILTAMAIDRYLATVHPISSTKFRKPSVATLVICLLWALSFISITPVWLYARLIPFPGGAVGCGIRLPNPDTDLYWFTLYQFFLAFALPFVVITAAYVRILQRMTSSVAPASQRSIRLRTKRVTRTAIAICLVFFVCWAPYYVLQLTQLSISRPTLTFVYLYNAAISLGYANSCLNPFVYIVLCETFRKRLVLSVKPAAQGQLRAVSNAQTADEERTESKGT

[21] = target: Neuropeptides B/W receptor type 1 (Homo sapiens, UniProt P48145); assay: human NPBW1 receptor blockade, IC50 – cell-based, fluorescence, dose response, set 6, late-stage follow-up (AID 588583); type: functional
Sequence of Neuropeptides B/W receptor type 1 (P48145 whole entry): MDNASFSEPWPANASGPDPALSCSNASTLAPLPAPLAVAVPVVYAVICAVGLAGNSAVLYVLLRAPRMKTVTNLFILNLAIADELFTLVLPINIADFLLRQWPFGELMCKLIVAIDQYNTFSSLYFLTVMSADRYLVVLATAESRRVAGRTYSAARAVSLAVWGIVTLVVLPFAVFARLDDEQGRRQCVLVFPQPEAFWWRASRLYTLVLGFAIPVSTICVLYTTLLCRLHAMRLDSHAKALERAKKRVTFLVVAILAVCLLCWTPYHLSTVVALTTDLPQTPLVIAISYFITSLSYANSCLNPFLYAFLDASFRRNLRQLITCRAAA

## CC1=CC2/C=C(\C)CCC(O)C(O)/C=C/C(=O)C23C(=O)NC(CC(C)C)C3C1C (stereo not drawn)
[1]
  AC50: 5.29 µM (active)
[2]
  IC50: 0.648 µM (active)
[3]
  EC50: 4.94 µM (inconclusive)
INS1
  AC50: 6.6 µM (active)
BJ [4]
  EC50: 4.8 µM (inconclusive)
[5]
  AC50: 6.58 µM (active)
[6]
  AC50: 6.91 µM (active)
[7]
  EC50: > 120 µM (not active)
[8]
  IC50: 3.16 µM (active)
[9]
  EC50: 4.09 µM (active)
[10]
  EC50: 4.73 µM (active)
[11]
  EC50: > 32 µM (inactive)
[12]
  IC50: 17.6 µM (not active)
BJ [13]
  EC50: 4.94 µM (active)
[14]
  IC50: 3.06 µM (active)
[15]
  EC50: 8.86 µM (active)
BJ [16]
  EC50: 6.51 µM (active)
[17]
  IC50: 4.38 µM (active)
[18]
  EC50: 9.67 µM (active)
[19]
  AC50: 8.15 µM (active)
A-375
  AC50: 10.4 µM (active)

## N#CC(Cc1ccccc1)c1c(Cl)cnn(Cc2cccc3ccccc23)c1=O (stereo not drawn)
[20]
  IC50: ~2.06 µM (active)
[21]
  IC50: ~2.06 µM (active)
